According to article PMC6048161, “Inward-facing conformation of L-ascorbate transporter suggests an elevator mechanism” (Cell Discovery, 2018):

Key:
ecUlaA [1] = molecular target: T1, ecUlaA (Escherichia coli, UniProt P39301, T86P); test: isothermal titration calorimetry; assay type: binding
T1 construct: gene ulaA; homologue genes cloned in pET21b with C-terminal His8, E. coli C43(DE3)

ecUlaA [2] = molecular target: T2, ecUlaA (Escherichia coli, UniProt P39301); test: isothermal titration calorimetry; conditions: ITC performed as in ref. 11; detergent-purified protein; read-out: binding affinity; cited from earlier work
T2 construct: gene ulaA; homologue genes cloned in pET21b with C-terminal His8, E. coli C43(DE3)

Kd (ecUlaA [1]): ~26.5 µM
SMILES: O=C1O[C@H]([C@@H](O)CO)C(O)=C1O [vitamin C]
Kd (ecUlaA [2]): 6.1 ± 0.9 µM
